Data published in patent US20240130988A1, “Use of stilbene compounds in the preparation of anti-tumor drugs” (Guangzhou AnHao Pharmaceutical Technology CO., LTD., priority 2022, published 2024).
Marks after values point to notes of the source that are not given here.

How the values were obtained:
[1] = tested on: LLC (mouse lung cancer cells); assay: Enrichment of CD8+ cytotoxic T lymphocytes in tumor tissue, Lewis non-small cell lung cancer model of mice; format: in vivo; conditions: 400 mg/kg ip once a day for 10 days, flow cytometry
Protocol: LLC (mouse lung cancer cells) were a mouse Lewis lung cancer cells.
The modeling method for LLC cell lung cancer in mice was as follows:
LLC cells were cultured in the general medium containing 10% fetal bovine serum and 100 μg/mL of double antibody (penicillin±streptomycin), and then cultivated in a 37° C., 5% CO2 cell incubator for routine incubation. LLC cells, that had grown to logarithmic phase, were digested with 0.25% trypsin (containing EDTA) to form a cell suspension, which was centrifuged at 1000 rpm/min for 3 min. The supernatant was discarded, and cell precipitates were collected, that were resuspended in culture medium without serum and double antibody. The cell suspension was further centrifuged to adjust the volume under the same conditions with the aid of cell counting, so as to prepare a cell suspension at a concentration of […] was injected into the right abdomen of each mouse, to complete the inoculation of tumor cells. The tumor was allowed to grew about 10 days, and the volume reached around 100 mm^3, before the mice were treated with test compounds.
Drug preparation: compounds 1-13 of the present invention were respective prepared into an injection with injection water.
Experimental methods: The model mice with LLC cell lung cancer were treated by intraperitoneal administration of 400 mg/kg injection containing the compound of the present invention. The model mice were divided into a negative control group (model mice only receiving equal volume of injection water by intraperitoneal administration) and treatment groups (model mice receiving the injection prepared with the compound of the present invention by intraperitoneal administration). The intraperitoneal injection regimen was carried out by injecting once a day at the pre-determined time. Before administration, the mice were weighed, and then treated with the injection at a dosage of 10 mL/kg, After successive administration for 10 days, that is, on the 10th day after receiving treatment, the mice were sacrificed, and the subcutaneous tumors were stripped to detect the ratio of cytotoxic T lymphocyte antigen CD8^+ in tumor tissues of the negative group and the treatment group by flow cytometry.
CD8^+ tumor-infiltrating lymphocytes in tumor tissues were detected by flow cytometry. The specific steps were as follows:
The mice were sacrificed, and then the abdominal epidermis of the mice was cut open using ophthalmic scissors, to fully expose the subcutaneous tumors. The subcutaneous tumor tissues on the right side of the mouse's abdomen were gradually peeled off with tweezers and ophthalmic scissors. After rinsing with PBS, the stripped tumor tissues were cut into about 1 mm using ophthalmic scissors, and then placed in 3 mL of PBS buffer containing 100 μg/mL of hyaluronidase. A centrifuge tube containing a dispersed liquid was placed in a water bath and kept at 37° C. for 20 min. A pipette was used to blow and shake the digestive tumor tissues every 5 minutes to fully digest. The dispersed liquid containing undigested tumor tissues was filtered through a 70 μm stainless steel cell screen, and the remaining undigested tumor tissues were ground using a push rod of 20 mL syringe on 70 μm cell screen and rinsed 5 times with 1 mL of PBS while grinding. The cell suspension passing the cell screen was transferred to a 15 mL centrifuge tube, and centrifuged at 4000 rpm for 3 min. Then, cell precipitates were collected, to which was added 2 mL of red cell lysis buffer, and rested for 10 min, followed by centrifuging at 4000 rpm for 3 min. After washing with PBS, the cells were resuspended by adding 2-3 mL of PBS.
An appropriate amount of cell suspension was used as the sample for flow cytometry, and after counting, the cell suspension was adjusted to have a concentration of 5×10^6/mL. 100 μL of cell suspension was added to a test tube with a pipettor. […]

[2] = tested on: nonfusion human umbilical vein endothelial cells (HUVEC); assay: TMT quantitative proteomics on nonfusion HUVEC; format: cell-based; conditions: 10 μM; for Differentially expressed proteins: more than 1.5 times or less than 0.67 times vs control; for Down-regulation / Up-regulation: number of proteins
Protocol: Nonfusion human umbilical vein endothelial cells (HUVEC) were used to simulate new tumor blood vessels, while confluent HUVECs were used to simulate normal blood vessels, to construct experimental models. Two different HUVECs were treated with the compound at the same dosage of 10 μM, to simulate the fusion cell state, and proteome samples were prepared. After preparation of peptide segments, the segments were labelled with TMT, and a quantitative proteomics analysis was carried out. The efficiency of TMT labeling was higher than 99.4%, and a total of 28372 peptide segments from 4934 proteins were characterized using a strict 1% FDR limit. Among them, 4909 quantifiable proteins were identified, indicating reliable quality. The nonfusion treatment groups and the fusion treatment groups were compared with their respective control groups, and the control group was used as a reference, with a significant difference of more than 1.5 times or less than 0.67 times as the protein score standard.
The total cell proteins of the samples in nonfusion cell groups and fusion cell groups were extracted separately, and 2 μg of protein samples were subjected to quality analysis, The quantitative proteomics experiments were carried out, and the protein concentration assay was performed by quantitative grayscale measurement.
Data analysis: The human protein database (Scientific name: Homo sapiens, 9606) was downloaded from UniProt, MaxQuant (v 1.5.5.1) search engine was used to search for the database. A total of 4934 proteins (4909 quantitative proteins) and 28372 peptide segments were identified by TMT quantitative proteomics experiments, with a labeling efficiency of more than 99%, and the complete digestion occupied 86.3%.

[3] = tested on: human liver cancer QGY7703; assay: Human liver cancer QGY7703 transplanted tumor in nude mice; format: in vivo, BALB/C nude mice; design: key to RTV (d 18): RTV = Vt/Vo, tumor volume relative to volume at grouping (d1); conditions: QGY7703, 100 mg/kg iv × 14; for inhibition in vivo at 100 mg/kg: Mus musculus, QGY-7703, read-out: Tumor inhibitory rate %
Protocol: A human liver cancer QGY7703 model transplanted into nude mice was used in the experiment to investigate the anti-tumor effect of test compounds. The mice were intravenously injected at a dosage of 100 mg/kg for 14 days, and the tumor inhibition rate against human liver cancer QGY7703 was measured.
(§1) Preparation: The compound was prepared as the injection at the desired concentration with sterile normal saline, prior to administration.
Animal strain: BALB/C nude mice (SPF grade), weight: 19-21 g, gender: male. Number of animals in each treatment group: 8; number of animals in the control group: >12.
(§2) The tumor blocks of human liver cancer QGY7703 with good growth were cut into uniform small pieces of 3 mm under sterile conditions, and then subcutaneously inoculated into the right armpit of each mouse with a cannula. These mice were divided into 9 groups, 8 mice for each treatment group, while more than 12 mice were included in the control group.
(§3) 14 days after inoculation, the average volume of the tumor block was about 100 mm^3. The animals were regrouped based on the size of the tumor, and the animals with tumors that were too large and too small were sifted out. For each group, the average volume of tumors was basically the same, and then the mice were initially treated with test compounds. The mice in the treatment groups were intravenously injected once a day for 14 days, at a dosage of 0.1 mL/20 g body weight; the mice in the control group were given the same volume of sterile normal saline. From the 14th day of inoculation, the long diameter a (mm) of the tumor, together with the perpendicular short diameter b (mm), was measured using a digital electronic caliper, twice a week. The calculation formula of tumor volume is: TV=ab^2/2, and the formula for calculating the relative tumor volume is RTV=Vt/Vo, wherein Vo denotes the tumor volume measured when the mice were divided into groups (i.e. d1), and Vt is the tumor volume from each measurement.
(§4) The result determination is based on the following formula: […]

[4] = tested on: LLC (mouse lung cancer cells); assay: Enrichment of CD8+ cytotoxic T lymphocytes in tumor tissue, Lewis non-small cell lung cancer model of mice; format: in vivo; conditions: 400 mg/kg ip once a day for 10 days, CD8+ immunohistochemistry
human lung cancer A549 = assay: Human lung cancer A549 transplanted tumors in nude mice; format: in vivo, BALB/C nude mice; conditions: A549, 400 mg/kg ig × 14
Protocol: In this experiment, a human lung cancer A549 model transplanted into nude mice was selected to study the anti-tumor effect of test compounds. The mice were treated at a dosage of 400 mg/kg by gavage for 14 days, and the tumor inhibition rate against human lung cancer A549 was measured.
Preparation: The compound was prepared as the solution at the desired concentration with distilled water, prior to administration.
Animal strain: BALB/C nude mice (SPF grade), weight: 19-21 g, gender: male. Number of animals in each treatment group: 8; Number of animals in the control group: >12.
Lung cancer A549 tumor blocks with good growth were chosen and cut into uniform small pieces of 3 mm under sterile conditions, and then subcutaneously inoculated into the right armpit of each mouse with a cannula. These mice were divided into 9 groups, 8 mice for each treatment group, while more than 12 mice were included in the control group.
14 days after inoculation, the average volume of the tumor mass was about 100 mm^3. The animals were regrouped based on the size of the tumor, and the mice with tumors that were too large and too small were eliminated. For each group, the average volume of tumors was basically the same, and then the mice were treated with test compounds. The mice in the treatment groups were administered once a day by gavage for 14 successive days, at a dosage of 0.5 mL/20 g body weight; the mice in the control group were given the same volume of physiological saline. From the 14th day of inoculation, the long diameter a (mm) of the tumor, together with the perpendicular short diameter b (mm), was measured using a digital electronic caliper, twice a week. The calculation formula of tumor volume is: TV=ab^2/2, and the formula for calculating the relative tumor volume is RTV=Vt/Vo, wherein Vo denotes the tumor volume measured when the mice were divided into groups (i.e. d1), and Vt is the tumor volume from each measurement.
as §4

[5] = tested on: human gastric cancer MGC803; assay: Human gastric cancer MGC803 transplanted tumor in nude mice; format: in vivo, BALB/C nude mice; conditions: MGC803, 200 mg/kg ip × 14
Protocol: A human gastric cancer MGC803 model transplanted into nude mice was used in the experiment to investigate the anti-tumor effect of test compounds.
as §1
Animal strain: BALB/C nude mice (SPF grade), weight: 19-21 g, gender: male.
Number of animals in each treatment group: 8; number of animals in the control group: >12.
as §2, with “gastric” for “liver”, “MGC803” for “QGY7703”
as §3, with “mice” for “mice in the treatment groups”, “intraperitoneally” for “intravenously”, “0.2” for “0.1”, “weight.” for “weight; the mice in the control group were given the same volume of sterile normal saline.”, “groups(i.e.” for “groups (i.e.”
as §4

## COc1ccc(/C=C(/C(=O)O)c2cc(OC)c(OC)c(OC)c2)c(O)c1O [Compound 2, (E)-3-(2,3-dihydroxy-4-methoxyphenyl)-2-(3,4,5-trimethoxylphenyl)acrylic acid]
[1]; 400 mg/kg
  The ratio of CD8^+ in total immune cells of tumor tissues (%): 0.0823 ± 0.0112%
[2]
  Differentially expressed proteins: 298
  Down-regulation: 288
  Up-regulation: 10
[3]
  inhibition in vivo at 100 mg/kg: 64.9%
  RTV (d 18): 4.51 ± 0.58
[4]; 400 mg/kg
  The ratio of distribution area in tumor tissues (%): 7.147 ± 0.7528%

## COc1cc(/C(=C\c2cc(O)c(OC)c(Cl)c2)C(=O)O)cc(OC)c1OC [Compound 5, (E)-3-(3-chloro-5-hydroxy-4-methoxyphenyl)-2-(3,4,5-trimethoxyphenyl) acrylic acid]
[1]
  The ratio of CD8^+ in total immune cells of tumor tissues (%): 0.0833 ± 0.0107%
[2]
  Differentially expressed proteins: 304
  Down-regulation: 297
  Up-regulation: 7
Human lung cancer A549
  RTV (d 22): 5.73 ± 1.25
Human lung cancer A549; Mus musculus, po, read-out: Tumor inhibitory rate %
  inhibition in vivo at 400 mg/kg: 51.2%
[4]
  The ratio of distribution area in tumor tissues (%): 7.438 ± 0.7610%

## COc1cc(/C=C(/C(=O)O)c2cc(OC)c(OC)c(OC)c2)ccc1O [Compound 7, (E)-3-(4-hydroxy-3-methoxyphenyl)-2-(3,4,5-trimethoxyphenyl)acrylic acid]
[1]
  The ratio of CD8^+ in total immune cells of tumor tissues (%): 0.0774 ± 0.0115%
[2]
  Differentially expressed proteins: 289
  Down-regulation: 281
  Up-regulation: 8
[3]
  inhibition in vivo at 100 mg/kg: 64%
  RTV (d 18): 4.63 ± 0.75
[5]
  RTV (d 18): 4.46 ± 0.62
  Tumor inhibitory rate %: 61.28^## %
[4]
  The ratio of distribution area in tumor tissues (%): 6.653 ± 0.7791%
